The values below come from article PMC4832382, “GacA is essential for Group A S treptococcus and defines a new class of monomeric dTDP‐4‐dehydrorhamnose reductases (RmlD)” (Molecular Microbiology, 2015).

Series [1] deals with T1, GacA (dTDP-4-dehydrorhamnose reductase, RmlD) (Streptococcus pyogenes, UniProt Q9A0G6).
T1 construct: full-length gacA (AAZ51220.1; M5005_Spy_0602), chemically biotinylated
Briefly: SPR (Biacore T200), equilibrium fit, […]°C. Format: binding. (Surface plasmon resonance follows binding to a sensor surface in real time, without labels.)

Series [2] concerns the molecule itself. Briefly: SEC; size-exclusion chromatography of purified wild-type SeRmlD and triple mutant, retention compared with GacA. Background: SEC sorts molecules by how far they enter the pores of the column.

T1 sequence (Q9A0G6 entry or part of it): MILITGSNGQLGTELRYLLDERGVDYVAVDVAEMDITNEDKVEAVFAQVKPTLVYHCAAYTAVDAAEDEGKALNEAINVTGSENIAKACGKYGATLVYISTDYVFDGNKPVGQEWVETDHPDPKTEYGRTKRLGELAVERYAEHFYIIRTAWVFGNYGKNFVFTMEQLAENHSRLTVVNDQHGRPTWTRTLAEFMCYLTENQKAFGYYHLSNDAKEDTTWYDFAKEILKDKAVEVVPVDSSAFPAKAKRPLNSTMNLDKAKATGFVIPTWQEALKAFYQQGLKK

One may read the Kd as the constant that tells how readily two partners part at equilibrium. For `NC(=O)C1=CN([C@@H]2O[C@H](COP(=O)(O)OP(=O)(O)OC[C@H]3O[C@@H](n4cnc5c(N)ncnc54)[C@H](O)[C@@H]3O)[C@@H](O)[C@H]2O)C=CC1` [NADH], the dissociation constant (Kd) in series [1] was 110 µM.
Still for that read-out and setting: with `NC(=O)C1=CN([C@@H]2O[C@H](COP(=O)(O)OP(=O)(O)OC[C@H]3O[C@@H](n4cnc5c(N)ncnc54)[C@H](OP(=O)(O)O)[C@@H]3O)[C@@H](O)[C@H]2O)C=CC1` [NADPH] the figure was 390 µM.

B1: RmlD (dTDP-4-dehydrorhamnose reductase) from Salmonella enterica serovar Typhimurium, wild type (enzyme, Salmonella enterica (LT2), UniProt P26392 1-299, looked up)
chain: MNILLFGKTGQVGWELQRSLAPVGNLIALDVHSKEFCGDFSNPKGVAETVRKLRPDVIVNAAAHTAVDKAESEPELAQLLNATSVEAIAKAANETGAWVVHYSTDYVFPGTGDIPWQETDATSPLNVYGKTKLAGEKALQDNCPKHLIFRTSWVYAGKGNNFAKTMLRLAKERQTLSVINDQYGAPTGAELLADCTAHAIRVALNKPEVAGLYHLVAGGTTTWHDYAALVFDEARKAGITLALTELNAVPTSAYPTPASRPGNSRLNTEKFQRNFDLILPQWELGVKRMLTEMFTTTTI
notes: RmlD, Salmonella enterica serovar Typhimurium LT2, full-length rmlD (GI 16420628); also called SeRmlD; wild-type SeRmlD; source: E. coli BL21(DE3), expressed and purified as described for GacA; not shown: His6, N-terminal, cleaved; GST, N-terminal, cleaved
A word on the stoichiometry N: it is a count of units in the complex or per binding partner. As to B1, the “stoichiometry N” value in series [2] is 2.
